These results are taken from PubChem BioAssay (NCI).

Among the test systems are HCC-2998 colon; HL-60(TB) leukemia; MDA-MB-435; OVCAR-3 ovarian; SF-295 CNS; SK-MEL-2 melanoma; SK-MEL-5 melanoma; SW-620 colon; UO-31 renal; EKVX NSCLC.
Test in all cases: inhibition of tumour cell growth, NCI panel, 48 h

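Following 48 hours of exposure in 96-well plates, responses at five concentrations were used to interpolate endpoints linearly. GI50: concentration for 50% inhibition of growth. TGI: concentration producing complete growth inhibition.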

With `Cc1cc2c(C)c3cc(C)c(N)cc3nc2cc1N`, the GI50 in the experiment on HCC-2998 colon is 1.12 µM; with HL-60(TB) leukemia it was 3 µM; with MDA-MB-435, 1.06 µM; with OVCAR-3 ovarian, 1.18 µM; in the experiment on SF-295 CNS, 0.909 µM; in the experiment with SK-MEL-2 melanoma, 1.3 µM. Also, the GI50 in the experiment with SK-MEL-5 melanoma was 1.73 µM; in the experiment on SW-620 colon, 0.38 µM; in the experiment on UO-31 renal it was 2.02 µM. For the same compound, the TGI with HCC-2998 colon amounted to 4.91 µM; with HL-60(TB) leukemia, 10.1 µM; in the experiment with MDA-MB-435, 5.93 µM; in the experiment with OVCAR-3 ovarian, 5.35 µM; with SF-295 CNS, 4.87 µM; in the experiment with SK-MEL-2 melanoma, 3.85 µM. The figures for the TGI with SK-MEL-5 melanoma, in the experiment on SW-620 colon and in the experiment on UO-31 renal were 5.28 µM, 3.57 µM and 8.79 µM, respectively.
On to `Cc1ccc2c(c1)NC(c1ccc(C(=O)O)cc1)c1cccn1-2` (stereo not given), for which the TGI in the experiment with EKVX NSCLC, with MDA-MB-435, in the experiment with OVCAR-3 ovarian, in the experiment with SF-295 CNS, with SK-MEL-2 melanoma and in the experiment on SK-MEL-5 melanoma was greater than 100 µM in each case. In the experiment with SW-620 colon, this compound displayed a TGI greater than 100 µM.
Take `O=S(=O)(c1ccc(NC(=S)N/N=C/c2ccccc2O)cc1)N1CCCCC1`: the TGI is 76.2 µM with EKVX NSCLC; 7.12 µM in the experiment on HL-60(TB) leukemia; 11.2 µM in the experiment on MDA-MB-435; 6.34 µM in the experiment with OVCAR-3 ovarian; 3.45 µM in the experiment on SF-295 CNS; greater than 100 µM with SK-MEL-2 melanoma. Besides, the values for the TGI with SK-MEL-5 melanoma, with SW-620 colon and in the experiment with UO-31 renal were 0.176 µM, 21 µM and greater than 41.9 µM, respectively. The GI50 in the experiment on HL-60(TB) leukemia was 0.351 µM.
With `COc1cccc(NC(=O)c2sc3nc4c(cc3c2N)CCCC4)c1`, the GI50 in the experiment on HCC-2998 colon was 1.6 µM; in the experiment with HL-60(TB) leukemia, 0.228 µM; in the experiment on MDA-MB-435, 0.15 µM; with OVCAR-3 ovarian, 0.329 µM; with SF-295 CNS, 0.481 µM; with SK-MEL-2 melanoma, 0.69 µM. In addition, the values for the GI50 in the experiment on SK-MEL-5 melanoma, in the experiment with SW-620 colon and in the experiment with UO-31 renal were 0.303 µM, 0.45 µM and 0.859 µM, respectively. The TGI with HCC-2998 colon was greater than 100 µM; with HL-60(TB) leukemia it was 0.765 µM; in the experiment on MDA-MB-435, 0.44 µM; in the experiment on OVCAR-3 ovarian it was 2.38 µM; in the experiment on SF-295 CNS it was 14 µM; in the experiment on SK-MEL-2 melanoma it was 18.6 µM. The TGI in the experiment with SK-MEL-5 melanoma is 2.67 µM; with SW-620 colon it was greater than 100 µM; with UO-31 renal, greater than 100 µM.
Take `ClC(=Nc1cccc2ccccc12)N(c1ccccc1)c1ccccc1`: the TGI with HCC-2998 colon is 54.8 µM; in the experiment with MDA-MB-435, greater than 100 µM; in the experiment on OVCAR-3 ovarian, greater than 100 µM; with SF-295 CNS, greater than 100 µM; in the experiment with SK-MEL-2 melanoma, greater than 100 µM; with SW-620 colon, greater than 100 µM. This compound displayed a TGI in the experiment on UO-31 renal greater than 100 µM.
Consider `COc1cc2c3c(n(C)c(=O)c2cc1OC)-c1cc2c(cc1/C3=C\CCCCN)OCO2`, for which the GI50 in the experiment with EKVX NSCLC was 18.4 µM; in the experiment on HL-60(TB) leukemia it was 4.68 µM; with MDA-MB-435, 5.56 µM; in the experiment with OVCAR-3 ovarian, 16.9 µM; with SF-295 CNS, 3.56 µM; with SK-MEL-2 melanoma, 5.71 µM. Moreover, the results for the GI50 in the experiment on SK-MEL-5 melanoma, with SW-620 colon and in the experiment on UO-31 renal were 13.2 µM, 6.36 µM and 3.28 µM, respectively. Moreover, the TGI in the experiment with EKVX NSCLC was 57.2 µM; in the experiment on HL-60(TB) leukemia, greater than 100 µM; with MDA-MB-435, 20.3 µM; in the experiment on OVCAR-3 ovarian, 33.4 µM; in the experiment with SF-295 CNS, 15.2 µM; in the experiment on SK-MEL-2 melanoma, 24.1 µM. Besides, the TGI in the experiment with SK-MEL-5 melanoma is 27.3 µM; with SW-620 colon, 24.8 µM; with UO-31 renal, 13.5 µM.
`O=C1/C(=C\c2ccc(Cl)cc2)CN(C(=S)Nc2ccccc2)C/C1=C\c1ccc(Cl)cc1`: the GI50 in the experiment with HCC-2998 colon is 0.755 µM; with HL-60(TB) leukemia it was 1.62 µM; with MDA-MB-435, 1.09 µM; in the experiment on OVCAR-3 ovarian it was 0.437 µM; in the experiment on SF-295 CNS, 0.389 µM; with SK-MEL-2 melanoma, 2.57 µM. Further, the values for the GI50 in the experiment with SK-MEL-5 melanoma, with SW-620 colon and with UO-31 renal were 1.66 µM, 0.298 µM and 1.21 µM, respectively. Also, the TGI was determined as 1.94 µM in the experiment with HCC-2998 colon; 7.85 µM in the experiment with HL-60(TB) leukemia; 3.01 µM with MDA-MB-435; 1.49 µM with OVCAR-3 ovarian; 1.73 µM with SF-295 CNS; 5.8 µM in the experiment with SK-MEL-2 melanoma. Further, the TGI was 3.12 µM with SK-MEL-5 melanoma, 1.04 µM in the experiment on SW-620 colon and 2.56 µM in the experiment with UO-31 renal.
As for `Cc1cc(NC(=O)C2c3ccccc3C(=O)N(CC(C)C)C2c2cccs2)no1` (stereo not given), the GI50 was greater than 100 µM in the experiment on HCC-2998 colon; 39 µM with HL-60(TB) leukemia; 33.7 µM with MDA-MB-435; 90.1 µM in the experiment with OVCAR-3 ovarian; 29 µM in the experiment on SF-295 CNS; greater than 100 µM in the experiment with SK-MEL-2 melanoma. The GI50 with SK-MEL-5 melanoma is 73.2 µM; in the experiment on SW-620 colon, greater than 100 µM; in the experiment on UO-31 renal, 30.2 µM. Besides, the TGI with HCC-2998 colon, in the experiment with HL-60(TB) leukemia, in the experiment with MDA-MB-435, in the experiment with OVCAR-3 ovarian, with SF-295 CNS and in the experiment with SK-MEL-2 melanoma was greater than 100 µM throughout. In addition, the TGI in the experiment with SK-MEL-5 melanoma, in the experiment on SW-620 colon and in the experiment with UO-31 renal was greater than 100 µM throughout.
`COc1cc2cc(Oc3ccc(NC(=O)Nc4cccc(C(F)(F)F)c4)cc3)c(C)nc2cc1OCCN1CCCCC1`: the GI50 in the experiment with EKVX NSCLC was 1.51 µM; with HL-60(TB) leukemia, 1.94 µM; with MDA-MB-435, 1.59 µM; in the experiment with OVCAR-3 ovarian it was 1.71 µM; with SF-295 CNS, 1.8 µM; in the experiment with SK-MEL-5 melanoma, 1.71 µM. Moreover, the values for the GI50 in the experiment on SW-620 colon and in the experiment on UO-31 renal were 1.98 µM and 1.45 µM, respectively. Further, the TGI in the experiment with EKVX NSCLC stood at 2.92 µM; in the experiment with HL-60(TB) leukemia, 3.74 µM; in the experiment with MDA-MB-435 it was 2.94 µM; in the experiment on OVCAR-3 ovarian, 3.15 µM; in the experiment on SF-295 CNS, 3.24 µM; in the experiment on SK-MEL-5 melanoma, 3.16 µM. Further, the TGI came to 3.6 µM with SW-620 colon and 2.79 µM in the experiment with UO-31 renal.
